biological target: T1, Muscarinic acetylcholine receptor M2 (Homo sapiens, UniProt P08172); assay: Muscarinic M2 Receptor Binding Assay
T1 sequence (P08172 whole entry): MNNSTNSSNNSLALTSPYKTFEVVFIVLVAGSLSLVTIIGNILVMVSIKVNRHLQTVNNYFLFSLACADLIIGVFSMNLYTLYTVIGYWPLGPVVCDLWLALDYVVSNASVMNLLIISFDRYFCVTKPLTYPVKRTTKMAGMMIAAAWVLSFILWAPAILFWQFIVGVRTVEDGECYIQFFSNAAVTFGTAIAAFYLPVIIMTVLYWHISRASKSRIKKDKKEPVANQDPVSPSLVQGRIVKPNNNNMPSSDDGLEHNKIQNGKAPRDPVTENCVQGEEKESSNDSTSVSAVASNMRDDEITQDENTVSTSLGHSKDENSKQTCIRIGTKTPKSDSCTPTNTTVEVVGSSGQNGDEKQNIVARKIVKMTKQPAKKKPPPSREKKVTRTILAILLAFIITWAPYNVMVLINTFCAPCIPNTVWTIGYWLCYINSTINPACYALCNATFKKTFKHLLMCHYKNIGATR
Protocol: Cell membrane homogenates (60 μg protein) were incubated for 60 minutes at 22° C. with 2 nM [3H]AF-DX 384 in the absence or presence of the test compound in a buffer containing 50 mM Tris-HCl (pH 7.4), 120 mM NaCl, 5 mM KCl, 5 mM MgCl2, and 1 mM EDTA. Nonspecific binding was determined in the presence of 1 μM atropine. Following incubation, the samples were filtered rapidly under vacuum through glass fiber filters (GF/B, Packard) presoaked with 0.3% PEI and rinsed several times with ice-cold 50 mM Tris-HCl using a 96-sample cell harvester (Unifilter, Packard). The filters were dried then counted for radioactivity in a scintillation counter (Topcount, Packard) using a scintillation cocktail (Microscint 0, Packard). The results were expressed as a percent inhibition of the control radioligand specific binding, from which the Ki was calculated. Data were analyzed using software developed at Cerep (Hill software) and validated by comparison with data generated by the commercial software SigmaPlot 4.0 for Windows ( 1997 by SPSS Inc.).

SMILES | Ki [nM]
CCN(C(=O)c1cc(F)ccc1-n1c(C)c(C(=O)C2CCN(C(=O)[C@H]3NC[C@@H]4C[C@@H]43)CC2)c2ccncc21)C(C)C (single isomer, unassigned) [US20240335431, Example 48-1] | 6700

biological target: T2, Menin (Homo sapiens, UniProt O00255); assay: Fluorescence Polarization (FP) Assay
T2 sequence (O00255 whole entry): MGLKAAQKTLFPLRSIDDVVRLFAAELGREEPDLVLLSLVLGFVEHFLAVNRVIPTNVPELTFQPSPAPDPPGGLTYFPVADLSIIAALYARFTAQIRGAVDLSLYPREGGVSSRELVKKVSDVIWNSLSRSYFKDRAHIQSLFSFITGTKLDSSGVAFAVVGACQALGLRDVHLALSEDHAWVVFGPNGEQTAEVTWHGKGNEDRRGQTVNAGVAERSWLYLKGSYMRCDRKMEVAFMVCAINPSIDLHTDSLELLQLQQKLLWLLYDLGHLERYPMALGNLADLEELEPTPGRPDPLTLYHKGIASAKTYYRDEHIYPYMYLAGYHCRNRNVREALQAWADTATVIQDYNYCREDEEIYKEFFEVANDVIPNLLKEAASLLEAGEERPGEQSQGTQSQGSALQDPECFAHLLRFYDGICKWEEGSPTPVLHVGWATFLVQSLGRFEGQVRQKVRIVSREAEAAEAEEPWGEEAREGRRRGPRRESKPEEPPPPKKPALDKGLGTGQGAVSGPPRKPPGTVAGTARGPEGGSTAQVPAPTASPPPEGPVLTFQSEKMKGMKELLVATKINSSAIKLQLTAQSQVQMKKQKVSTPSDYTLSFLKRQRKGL
Protocol: Compounds were tested in a biochemical binding assay using Menin protein at 2 nM (N6his-tev-Menin_4i80, PB-20-1459) and the substrate cRho110-Ahx-MBM1/MBM2 peptide (UbiQ, UbiQ-Q20201030; cRh110-Ahx-[…]-QRVPALLLPPG-NH2) at 1 nM.384 Low volume black plates (Corning #4514) were used. 5 μL/well compound or 3% DMSO was added at 10-fold serial dilutions in DMSO from 10 μM. 5 μL/well cRho110-Ahx-MBM1/MBM2 peptide or binding buffer (50 mM Tris pH 7.5, 50 mM NaCl, 1 mM TCEP, 0.01% BGG, 0.01% Brij-35) was added to all wells. 5 μL/well Menin protein or binding buffer (50 mM Tris pH 7.5, 50 mM NaCl, 1 mM TCEP, 0.01% BGG, 0.01% Brij-35) was added to all wells. Plates were read on an EnVision plate reader (Perkin Elmer) with excitation at 480 nm and emission at 535 nm P+S, and measured every 5 minutes for 180 minutes.

SMILES | IC50 [nM]
CC(C)c1cnccc1-c1cc(F)ccc1-n1cc(C(=O)C2CN(C(=O)[C@H]3N[C@@H]4CC[C@H]3C4)C2)c2ccncc21 [US20240335431, Example 11] | 4
CC(C)N(C(=O)c1cc(F)ccc1-n1cc(C(=O)C2CN(C(=O)[C@H]3N[C@H]4C[C@@H]3[C@@H](F)C4)C2)c2ccncc21)C(C)C [US20240335431, Example 7] | 24
CCN(C(=O)c1cc(F)ccc1-n1cc(C(=O)C2CN(C(=O)[C@H]3NC4CCC3CC4)C2)c2ccncc21)C(C)C [US20240335431, Example 9] | 51
CC(C)N(C(=O)c1cc(F)ccc1-n1cc(C(=O)C2CCN(C(=O)[C@@H]3CCC(C)(C)N3)CC2)c2ccncc21)C(C)C [US20240335431, Example 27] | 25
C[C@@H]1CC[C@H](C)N1C(=O)c1cc(F)ccc1-n1cc(C(=O)C2CCN(C(=O)[C@H]3N[C@@H]4CC[C@H]3C4)CC2)c2ccncc21 [US20240335431, Example 32] | 36
CC(C)N(C(=O)c1cc(F)ccc1-n1cc(C(=O)C2CCN(C(=O)[C@H]3NC[C@@H]4CC[C@@H]43)CC2)c2ccncc21)C(C)C (relative stereo) [US20240335431, Example 25] | 27
CC(C)c1ncsc1-c1cc(F)ccc1-n1cc(C(=O)C2CN(C(=O)[C@H]3N[C@@H]4CC[C@H]3C4)C2)c2ccncc21 [US20240335431, Example 12] | 6

The next lines start with the values.

IC50 [nM] | SMILES
1970 | CCN(C(=O)c1cc(F)ccc1-n1c(C)c(C(=O)C2CCN(C(=O)[C@H]3NC[C@@H]4C[C@@H]43)CC2)c2ccncc21)C(C)C (single isomer, unassigned) [US20240335431, Example 48-1]
36 | CC(C)N(C(=O)c1cc(F)ccc1-n1cc(C(=O)[C@@H]2CCCN(C(=O)[C@H]3N[C@@H]4CC[C@H]3C4)CC2)c2ccncc21)C(C)C (relative stereo) [US20240335431, Example 45]
1340 | Cc1c(C(=O)C2CCN(C(=O)[C@H]3NC[C@@H]4C[C@@H]43)CC2)c2ccncc2n1-c1ccc(F)cc1C(=O)N(C(C)C)C(C)C (single isomer, unassigned) [US20240335431, Example 55-1]
15 | CCN(C(=O)c1cc(F)ccc1-n1c(C)c(C(=O)C2CCN(C(=O)[C@H]3NC[C@@H]4C[C@@H]43)CC2)c2ccncc21)C(C)C [US20240335431, Example 47]
24 | CC(C)n1nccc1-c1cc(F)ccc1-n1cc(C(=O)C2CCN(C(=O)[C@H]3N[C@@H]4CC[C@H]3C4)CC2)c2ccncc21 [US20240335431, Example 36]
9 | CC(C)c1ncsc1-c1cc(F)ccc1-n1cc(C(=O)C2CCN(C(=O)[C@H]3N[C@@H]4CC[C@H]3C4)CC2)c2ccncc21 [US20240335431, Example 42]
76 | Cc1c(C(=O)[C@@H]2CCN(C(=O)[C@@H]3CC[C@H](C)N3)[C@@H](C)C2)c2ccncc2n1-c1ccc(F)cc1C(=O)N(C(C)C)C(C)C [US20240335431, Example 62]
15 | Cc1c(C(=O)C2CCN(C(=O)[C@H]3NC[C@@H]4C[C@@H]43)CC2)c2ccncc2n1-c1ccc(F)cc1-c1cnccc1C(C)C [US20240335431, Example 54]
2150 | Cc1c(C(=O)C2CCN(C(=O)[C@@H]3CCC(C)(C)N3)CC2)c2ccncc2n1-c1ccc(F)cc1C(=O)N(C(C)C)C(C)C (single isomer, unassigned) [US20240335431, Example 56-1]
97 | C[C@@H]1COC[C@H](C)N1C(=O)c1cc(F)ccc1-n1cc(C(=O)C2CCN(C(=O)[C@H]3N[C@@H]4CC[C@H]3C4)CC2)c2ccncc21 [US20240335431, Example 35]

From BindingDB's records for patent US20240335431 (Acerta Pharma, 2024)
